Values after ≈ are worked out from the molar mass of the structure shown. Where two headings read alike, the source gives them in different places.
How the values were obtained:
[1] = test system: S. epidermidis Ax 25; assay: Bactericidal activity (MBC), 60 min contact; type: cell-based, Staphylococcus epidermidis; settings: complete kill of inoculum after 60 min incubation; regrowth read after 24 h at 36° C.
Text: (§1) The different axilla bacteria are isolated from the human axilla according to techniques known in the art, in particular according to standard microbiological practice. They are taxonomically identified by cell morphology, gram-reaction and biochemical tests included in the Api coryne test kit (BioMerieux, France). Strain Staphylococcus epidermidis Ax25 is identified by fatty acid methyl ester analysis (FAME; German type strain collection DSMZ, Germany). Escherichia coli DSM 682, Staphylococcus aureus DSM 799, and Corynebacterium xerosis DSM 20170 are obtained from the German-type strain collection.
(§2) The strains are maintained on Tryptic soy broth plates, this standard medium being supplemented with 5 g per litre of Polyoxyethylene Sorbitan Monooleate (Tween™ 80). Plates are incubated at 36° C. for a period 48 hours. The bacteria are then swabbed from the plates and suspended in 4 ml of Müller-Hinton broth supplemented with 100 mg of Tween™ 80 per litre (MH-Tween™) and incubated again at 36° C. for 16 hours. Following incubation, the bacterial suspensions are diluted in MH-Tween™ to obtain a final cell density of 10^7 colony forming units per ml. These diluted suspensions of the different test organisms are distributed to different columns of a microtiter plate, 100 μl per well. The test compounds are dissolved in dimethylsulfoxide (DMSO) at various test concentrations and 2.5 μl of these different DMSO solutions are added to the different wells of the test plates. The plates are covered with plastic films and incubated for 24 h at 36° C. with shaking at 250 rpm. The turbidity developing in the microtiter plates is then examined after 24 h to determine microbial growth. The minimal concentration of test compounds inhibiting the growth of an organism by at least 80% is determined as the minimal inhibitory concentration (MIC).
(§3) The bactericidal effects of the compounds of the present invention are further tested. The bacteria are grown, harvested and diluted under the same conditions as described in example 10 above and added to microtiter plates (100 μl per well), each well containing 2.5 μl of the different DMSO solutions as described above. After 60 min incubation, 0.5 μl of the bacterial culture from each well (corresponding to 5×10^3 cfu in the control treatment) is transferred to a fresh microtiter plate which contained 100 μl per well of fresh medium. The plates are covered with plastic films and incubated for 24 h at 36° C. with shaking at 250 rpm. The turbidity developing in the microtiter plates is then examined after 24 h to determine microbial growth. The minimal concentration of test compounds which completely killed the bacterial inoculum is determined as the minimal bactericidal concentration (MBC).

[2] = test system: Escherichia coli DSM 682; assay: Bacteriostatic activity (MIC), microtiter turbidity; type: cell-based; settings: read-out: MIC Escherichia coli DSM 682
Text: as §1, with “Germany).” for “Germany). Escherichia coli DSM 682, Staphylococcus aureus DSM 799, and Corynebacterium xerosis DSM 20170 are obtained from the German-type strain collection.”
as §2, with “growth.” for “growth. The minimal concentration of test compounds inhibiting the growth of an organism by at least 80% is determined as the minimal inhibitory concentration (MIC).”

[3] = test system: Staphylococcus aureus DSM 799; assay: as above; type: cell-based; settings: read-out: MIC Staphylococcus aureus DSM 799
Text: as §1, with “Germany).” for “Germany). Escherichia coli DSM 682, Staphylococcus aureus DSM 799, and Corynebacterium xerosis DSM 20170 are obtained from the German-type strain collection.”
as §2, with “growth.” for “growth. The minimal concentration of test compounds inhibiting the growth of an organism by at least 80% is determined as the minimal inhibitory concentration (MIC).”

[4] = test system: S. epidermidis Ax 25; assay: as above; type: cell-based; settings: Staphylococcus epidermidis, read-out: MIC S. epidermidis Ax 25
Text: as §1, with “Germany).” for “Germany). Escherichia coli DSM 682, Staphylococcus aureus DSM 799, and Corynebacterium xerosis DSM 20170 are obtained from the German-type strain collection.”
as §2, with “growth.” for “growth. The minimal concentration of test compounds inhibiting the growth of an organism by at least 80% is determined as the minimal inhibitory concentration (MIC).”

[5] = test system: C. xerosis DSM 20170; assay: as above; type: cell-based; settings: Corynebacterium xerosis, read-out: MIC C. xerosis DSM 20170
Text: as §1, with “Germany).” for “Germany). Escherichia coli DSM 682, Staphylococcus aureus DSM 799, and Corynebacterium xerosis DSM 20170 are obtained from the German-type strain collection.”
as §2, with “growth.” for “growth. The minimal concentration of test compounds inhibiting the growth of an organism by at least 80% is determined as the minimal inhibitory concentration (MIC).”

[6] = test system: Escherichia coli DSM 682; assay: Bactericidal activity (MBC), 60 min contact; type: cell-based; settings: complete kill of inoculum after 60 min incubation; regrowth read after 24 h at 36° C.
Text: as §1, §2, §3

[7] = test system: Staphylococcus aureus DSM 799; assay: Bactericidal activity (MBC), 60 min contact; type: cell-based; settings: complete kill of inoculum after 60 min incubation; regrowth read after 24 h at 36° C.
Text: as §1, §2, §3

[8] = test system: Corynebacterium Ax 15; assay: Bacteriostatic activity (MIC), microtiter turbidity; type: cell-based, Corynebacterium jeikeium; settings: read-out: MIC Corynebacterium Ax 15
Text: as §1, with “Germany).” for “Germany). Escherichia coli DSM 682, Staphylococcus aureus DSM 799, and Corynebacterium xerosis DSM 20170 are obtained from the German-type strain collection.”
as §2, with “growth.” for “growth. The minimal concentration of test compounds inhibiting the growth of an organism by at least 80% is determined as the minimal inhibitory concentration (MIC).”

[9] = test system: Corynebacterium Ax 7; assay: as above; type: cell-based, Corynebacterium group G; settings: read-out: MIC Corynebacterium Ax 7
Text: as §1, with “Germany).” for “Germany). Escherichia coli DSM 682, Staphylococcus aureus DSM 799, and Corynebacterium xerosis DSM 20170 are obtained from the German-type strain collection.”
as §2, with “growth.” for “growth. The minimal concentration of test compounds inhibiting the growth of an organism by at least 80% is determined as the minimal inhibitory concentration (MIC).”

[10] = test system: Corynebacterium Ax 7; assay: Bactericidal activity (MBC), 60 min contact; type: cell-based, Corynebacterium group G; settings: complete kill of inoculum after 60 min incubation; regrowth read after 24 h at 36° C.
Text: as §1, §2, §3

[11] = test system: C. xerosis DSM 20170; assay: Bactericidal activity (MBC), 60 min contact; type: cell-based, Corynebacterium xerosis; settings: complete kill of inoculum after 60 min incubation; regrowth read after 24 h at 36° C.
Text: as §1, §2, §3

[12] = test system: Corynebacterium Ax 15; assay: Bactericidal activity (MBC), 60 min contact; type: cell-based, Corynebacterium jeikeium; settings: complete kill of inoculum after 60 min incubation; regrowth read after 24 h at 36° C.
Text: as §1, §2, §3

[13] = test system: Aspergillus niger; assay: Antifungal (fungistatic) activity, MIC; type: cell-based; settings: growth inhibition by at least 80%, 48 h, Saboureaud liquid medium, 10^5 cfu per ml
Method: as §2
(§4) The fungistatic effects of the compounds of the present invention are tested against the standard strains Candida albicans and Aspergillus niger. The strains are maintained on Potato dextrose agar plates. Plates are incubated at 30° C. for a period of 72 hours. The fungal inoculum is then swabbed from the plates and suspended in Saboureaud liquid medium and incubated again at 30° C. for 24 hours in the case of C. albicans. For A. niger the inoculum containing the fungal spores is directly harvested from the agar plates and suspended in distilled water. The inoculum is then diluted in Saboureaud liquid medium to obtain a final cell density of 10^5 colony forming units per ml. The test for fungistatic activity using differently concentrated DMSO stock solutions in microtiter plates is then conducted as described in example 10 for the bacteriostatic activity. The turbidity developing in the microtiter plates is then examined after 48 h to determine fungal growth. The minimal concentration of test compounds inhibiting the growth of an organism by at least 80% is determined as the minimal inhibitory concentration (MIC).

[14] = test system: Candida albicans; assay: Antifungal (fungistatic) activity, MIC; type: cell-based; settings: growth inhibition by at least 80%, 48 h, Saboureaud liquid medium, 10^5 cfu per ml
Method: as §2, §4

[15] = DSM682, growth inhibition by at least 80%, 24 h at 36° C., MH-Tween, 10^7 cfu per ml
[16] = DSM799, growth inhibition by at least 80%, 24 h at 36° C., MH-Tween, 10^7 cfu per ml
[17] = AX25, growth inhibition by at least 80%, 24 h at 36° C., MH-Tween, 10^7 cfu per ml
[18] = DSM20170, growth inhibition by at least 80%, 24 h at 36° C., MH-Tween, 10^7 cfu per ml
[19] = AX15, growth inhibition by at least 80%, 24 h at 36° C., MH-Tween, 10^7 cfu per ml
[20] = AX7, growth inhibition by at least 80%, 24 h at 36° C., MH-Tween, 10^7 cfu per ml

MIC [2, 15] [µg/mL]	MIC [3, 16] [µg/mL]	MIC [4, 17] [µg/mL]	MIC [5, 18] [µg/mL]	MIC [8, 19] [µg/mL]	MIC [9, 20] [µg/mL]	SMILES	MBC S. epidermidis Ax 25 [1]	MBC Escherichia coli DSM 682 [6]	MBC Staphylococcus aureus DSM 799 [7]	MBC Corynebacterium Ax 7 [10]	MBC C. xerosis DSM 20170 [11]	MBC Corynebacterium Ax 15 [12]	MIC ([2]; DSM682, 24 h) [µg/mL]	MIC ([3]; DSM799, 24 h) [µg/mL]	MIC ([4]; AX25, 24 h) [µg/mL]	MIC ([5]; DSM20170, 24 h) [µg/mL]	MIC ([8]; AX15, 24 h) [µg/mL]	MIC ([9]; AX7, 24 h) [µg/mL]	MIC A. niger [13]	MIC C. albicans [14]
> 2500	> 2500	≤ 19	> 2500	39 (≈ 130 µM)	2500 (≈ 8320 µM)	CCCCCCCCC(CCCCCC)COC(=O)CO (centres unmarked) [Compound 3., Hydroxy-acetic 2-hexyl-decyl ester]	>0.25 % (weight/volume)	>0.25 % (weight/volume)	>0.25 % (weight/volume)	>0.25 % (weight/volume)	>0.25 % (weight/volume)	>0.25 % (weight/volume)								
						CCCCC(CC)COC(=O)CN (centres unmarked) [Compound 4., 2-Ethyl-hexyloxycarbonylmethyl-ammonium chloride]	0.25 % (weight/volume)	0.125 % (weight/volume)	0.25 % (weight/volume)	0.25 % (weight/volume)	>0.25 % (weight/volume)	0.25 % (weight/volume)	630	630	630	310	310	310		
> 2500	310 (≈ 1270 µM)	80 (≈ 327 µM)	80 (≈ 327 µM)	40 (≈ 164 µM)	80 (≈ 327 µM)	CCCCCCC(CCCC)COC(=O)CO (centres unmarked) [Compound 2., Hydroxy-acetic acid 2-butyl-octyl ester]	>0.25 % (weight/volume)			>0.25 % (weight/volume)	>0.25 % (weight/volume)	>0.25 % (weight/volume)								
						CCCCCCC(CCCC)COC(=O)CN (centres unmarked) [Compound 5., 2-Butyl-octyloxycarbonylmethyl-ammonium chloride]	0.004 % (weight/volume)	0.004 % (weight/volume)	0.004 % (weight/volume)	0.002 % (weight/volume)	0.004 % (weight/volume)	0.002 % (weight/volume)	20	80	20	20	10	10	0.0039 % (weight/volume)	0.0078 % (weight/volume)
1250 (≈ 6640 µM)	2500 (≈ 13300 µM)	1250 (≈ 6640 µM)	1250 (≈ 6640 µM)	1250 (≈ 6640 µM)	1250 (≈ 6640 µM)	CCCCC(CC)COC(=O)CO (centres unmarked) [Compound 1., Hydroxy-acetic acid 2-ethyl-hexyl ester]	0.25 % (weight/volume)			0.125 % (weight/volume)	0.125 % (weight/volume)	0.125 % (weight/volume)							0.125 % (weight/volume)	0.0625 % (weight/volume)
						CCCCCCCCC(CCCCCC)COC(=O)CN (centres unmarked) [Compound 6., 2-Hexyl-decyloxycarbonylmethyl-ammonium chloride]	0.002 % (weight/volume)	0.016 % (weight/volume)	0.004 % (weight/volume)	0.0005 % (weight/volume)	0.002 % (weight/volume)	0.0005 % (weight/volume)	20	20	5	10	5	5	0.002 % (weight/volume)	0.0156 % (weight/volume)
						CCCCCCCCCCCC(=O)OCC(O)CO (centres unmarked) [Compound C1, Dodecanoic acid 2,3-dihydroxy-propyl ester, reference compound]							> 5000	80 (≈ 292 µM)	< 80	320 (≈ 1170 µM)	1250 (≈ 4560 µM)	160 (≈ 583 µM)		
						Oc1cc(Cl)ccc1Oc1ccc(Cl)cc1Cl [Compound C4, Triclosan, reference compound]							5 (≈ 17.3 µM)	5 (≈ 17.3 µM)	0.15 (≈ 0.518 µM)	15 (≈ 51.8 µM)	30 (≈ 104 µM)	30 (≈ 104 µM)		

Source: patent US7459581B2, “Anti-bacterial compounds” (Givaudan S.A., priority 2004, dated 2008)
